# From ChEMBL document CHEMBL1201862, “PubChem BioAssay data set” (2004)
#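 Exposure lasted 48 hours, with cells grown in 96-well plates and compounds tested at five concentrations. Here, GI50 denotes the concentration required for 50% inhibition of growth.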 The source made the active and inactive calls. Cut-off read from the data, not from the text of the source: active = GI50 up to about 1.1 µM and inactive = higher.
# Assays:
# Test in all cases: inhibition of tumour cell growth, NCI panel, 48 h
# UO-31 = system: UO-31
# SF-295 = system: SF-295
# SK-MEL-28 = system: SK-MEL-28
# A498 = system: A498
# NCI-H460 = system: NCI-H460
# A549 = system: A549
# SN12C = system: SN12C
# SNB-75 = system: SNB-75
# SR = system: SR
# SW-620 = system: SW-620
# HT-29 = system: HT-29
# SK-MEL-2 = system: SK-MEL-2
# TK-10 = system: TK-10
# UACC-257 = system: UACC-257
# DU-145 = system: DU-145
# OVCAR-3 = system: OVCAR-3
# SF-268 = system: SF-268
# HL-60 = system: HL-60
# RXF 393 = system: RXF 393
# Hs-578T = system: Hs-578T
SMILES,GI50 (UO-31),GI50 (SF-295),GI50 (SK-MEL-28),GI50 (A498),GI50 (NCI-H460),GI50 (A549),GI50 (SN12C),GI50 (SNB-75),GI50 (SR),GI50 (SW-620),GI50 (HT-29),GI50 (SK-MEL-2),GI50 (TK-10),GI50 (UACC-257),GI50 (DU-145),GI50 (OVCAR-3),GI50 (SF-268),GI50 (HL-60),GI50 (RXF 393),GI50 (Hs-578T)
CC(=O)Nc1ccccc1C=C1c2ccccc2-c2ccccc21,16.2 µM (inactive),20.9 µM (inactive),> 100 µM (inactive),36.3 µM (inactive),34.7 µM (inactive),24.1 µM (inactive),19.1 µM (inactive),17.9 µM (inactive),98.9 µM (inactive),> 100 µM (inactive),> 100 µM (inactive),34 µM (inactive),31.3 µM (inactive),56.8 µM (inactive),33.2 µM (inactive),25.1 µM (inactive),> 100 µM (inactive),> 100 µM (inactive),20.8 µM (inactive),> 100 µM (inactive)
Cc1nc2c(nc1C)C(=O)c1ccccc1C2=O,11.7 µM (inactive),1.48 µM (inactive),1.84 µM (inactive),3.74 µM (inactive),0.923 µM (active),1.25 µM (inactive),2.48 µM (inactive),2.64 µM (inactive),8.43 µM (inactive),2.98 µM (inactive),4.46 µM (inactive),1.24 µM (inactive),20.6 µM (inactive),1.32 µM (inactive),1.36 µM (inactive),2.68 µM (inactive),10.2 µM (inactive),3.98 µM (inactive),15.4 µM (inactive),2.14 µM (inactive)
CCOC(=O)c1ccc(/N=C/C=C(\Nc2ccc(C(=O)OCC)cc2)c2ccc3ccccc3c2)cc1,40.8 µM (inactive),28.2 µM (inactive),23.5 µM (inactive),95.9 µM (inactive),25.8 µM (inactive),34.5 µM (inactive),26.7 µM (inactive),28 µM (inactive),20.3 µM (inactive),45.2 µM (inactive),18.4 µM (inactive),23.5 µM (inactive),19.8 µM (inactive),31 µM (inactive),37.3 µM (inactive),23.1 µM (inactive),42.1 µM (inactive),25.4 µM (inactive),21.1 µM (inactive),31.1 µM (inactive)
CN(C)c1ccc(/C=C/c2ccnc3ccccc23)cc1,43.9 µM (inactive),54.7 µM (inactive),72.6 µM (inactive),> 100 µM (inactive),47.9 µM (inactive),61.4 µM (inactive),64.9 µM (inactive),28.8 µM (inactive),30.5 µM (inactive),39.4 µM (inactive),25.3 µM (inactive),58.2 µM (inactive),65.8 µM (inactive),> 100 µM (inactive),47.9 µM (inactive),> 100 µM (inactive),> 100 µM (inactive),31.6 µM (inactive),54.3 µM (inactive),14.5 µM (inactive)
Cc1cc(C)nc(NS(=O)(=O)c2ccc(Nc3c4ccccc4nc4ccc(C(=O)Nc5ccc(S(=O)(=O)N=C(N)N)cc5)cc34)cc2)n1,82.4 µM (inactive),> 100 µM (inactive),> 100 µM (inactive),> 100 µM (inactive),36 µM (inactive),> 100 µM (inactive),97.7 µM (inactive),> 100 µM (inactive),44.6 µM (inactive),48.4 µM (inactive),59.4 µM (inactive),> 100 µM (inactive),> 100 µM (inactive),72.3 µM (inactive),> 100 µM (inactive),43.4 µM (inactive),69.5 µM (inactive),34.3 µM (inactive),50.8 µM (inactive),> 100 µM (inactive)
CN(C)CCC(=O)N1C/C(=C\c2ccc(Cl)c(Cl)c2)C(=O)/C(=C/c2ccc(Cl)c(Cl)c2)C1,0.336 µM (active),0.274 µM (active),0.618 µM (active),1.32 µM (inactive),0.479 µM (active),0.531 µM (active),0.207 µM (active),0.415 µM (active),0.0746 µM (active),0.102 µM (active),0.188 µM (active),1.63 µM (inactive),0.625 µM (active),1.1 µM (active),0.224 µM (active),0.448 µM (active),0.309 µM (active),0.0435 µM (active),0.269 µM (active),0.257 µM (active)
CC1=C(C)C(=O)O[C@@H]([C@](C)(O)[C@]2(O)CC[C@@]3(O)[C@@H]4C[C@H](O)[C@]5(O)[C@@H](O)C=CC(=O)[C@]5(C)[C@H]4CC[C@]23C)C1,> 100 µM (inactive),> 100 µM (inactive),> 100 µM (inactive),> 100 µM (inactive),> 100 µM (inactive),> 100 µM (inactive),> 100 µM (inactive),37.2 µM (inactive),31.3 µM (inactive),> 100 µM (inactive),86.3 µM (inactive),> 100 µM (inactive),> 100 µM (inactive),> 100 µM (inactive),> 100 µM (inactive),> 100 µM (inactive),> 100 µM (inactive),18 µM (inactive),> 100 µM (inactive),> 100 µM (inactive)
CCN(CC)CCCNc1nncc2c(C)c3[nH]c4ccc(OC)cc4c3cc12,3.17 µM (inactive),1.55 µM (inactive),0.766 µM (active),1.75 µM (inactive),0.789 µM (active),0.718 µM (active),0.271 µM (active),0.64 µM (active),0.414 µM (active),0.184 µM (active),0.504 µM (active),1.02 µM (active),2.82 µM (inactive),2.35 µM (inactive),0.622 µM (active),0.604 µM (active),0.706 µM (active),0.91 µM (active),1.32 µM (inactive),0.482 µM (active)
COc1ccc([N+](=O)[O-])c2c(NCCCN(C)C)c3ccccc3nc12,0.255 µM (active),0.107 µM (active),3 µM (inactive),0.0204 µM (active),0.0355 µM (active),0.0843 µM (active),0.26 µM (active),0.222 µM (active),< 0.01 µM (active),0.0929 µM (active),0.07 µM (active),0.131 µM (active),0.399 µM (active),0.23 µM (active),0.126 µM (active),0.125 µM (active),0.236 µM (active),0.662 µM (active),0.0838 µM (active),0.682 µM (active)
O=C1CCc2cc3c(cc21)CC1(Cc2ccccc2C1)C3,4.02 µM (inactive),6.43 µM (inactive),10.3 µM (inactive),12.2 µM (inactive),6.31 µM (inactive),12 µM (inactive),19.9 µM (inactive),15.7 µM (inactive),1.86 µM (inactive),4.34 µM (inactive),3.14 µM (inactive),2.11 µM (inactive),30.3 µM (inactive),19.6 µM (inactive),20.8 µM (inactive),8.75 µM (inactive),37.8 µM (inactive),2.43 µM (inactive),33 µM (inactive),52.1 µM (inactive)
Cc1cn([C@@H]2C[C@H](CO)[C@@H]2O)c(=O)[nH]c1=O,> 100 µM (inactive),> 100 µM (inactive),> 100 µM (inactive),> 100 µM (inactive),> 100 µM (inactive),> 100 µM (inactive),> 100 µM (inactive),> 100 µM (inactive),> 100 µM (inactive),> 100 µM (inactive),> 100 µM (inactive),> 100 µM (inactive),> 100 µM (inactive),> 100 µM (inactive),> 100 µM (inactive),> 100 µM (inactive),> 100 µM (inactive),> 100 µM (inactive),> 100 µM (inactive),> 100 µM (inactive)
CC(=O)OCC1=C2C(OC(=O)C(C)C)CC3(COC(C)=O)OC3/C=C\C3(C)OC3C2OC1=O (stereo not given),> 100 µM (inactive),> 100 µM (inactive),> 100 µM (inactive),> 100 µM (inactive),> 100 µM (inactive),> 100 µM (inactive),> 100 µM (inactive),> 100 µM (inactive),> 100 µM (inactive),> 100 µM (inactive),> 100 µM (inactive),> 100 µM (inactive),> 100 µM (inactive),> 100 µM (inactive),> 100 µM (inactive),> 100 µM (inactive),> 100 µM (inactive),34.4 µM (inactive),> 100 µM (inactive),> 100 µM (inactive)
COc1cc2c(cc1OCCCOc1cc3c(cc1OC)C(=O)N1CCC[C@H]1C(=O)N3)N=C[C@@H]1CCCN1C2=O,18.5 µM (inactive),15.8 µM (inactive),21 µM (inactive),17.3 µM (inactive),19.9 µM (inactive),22.1 µM (inactive),15.7 µM (inactive),10.1 µM (inactive),1.54 µM (inactive),11 µM (inactive),16.9 µM (inactive),12.6 µM (inactive),25.8 µM (inactive),24.5 µM (inactive),36.7 µM (inactive),19.5 µM (inactive),4.82 µM (inactive),8.34 µM (inactive),13.3 µM (inactive),29 µM (inactive)
Oc1nc(S)nc(SCc2c(Cl)c(Cl)c(Cl)c(Cl)c2Cl)n1,30 µM (inactive),> 100 µM (inactive),31.1 µM (inactive),> 59.4 µM (inactive),58.2 µM (inactive),> 96.4 µM (inactive),49.5 µM (inactive),> 100 µM (inactive),0.184 µM (active),32.4 µM (inactive),28.1 µM (inactive),52.5 µM (inactive),> 80.2 µM (inactive),> 88.3 µM (inactive),45.9 µM (inactive),15.3 µM (inactive),40 µM (inactive),20.1 µM (inactive),16.9 µM (inactive),> 59.2 µM (inactive)
